Data published in US10849988B2, “Hydrogel for engineered immune response to D-chirality peptides” (THE REGENTS OF THE UNIVERSITY OF CALIFORNIA, priority 2016, dated 2020).
Where no end group is shown, it is not given here. [ ]: non-standard residue; d: D form.

Tested on: macrophages
Experiment: In vitro macrophage assay, mRNA production of key markers of inflammation
Type: cell-based
Excerpt: FIGS. 6A-6I show data from comparative studies on D and L peptides. […] Note: in 1:1 L/D samples the L gels are unlabeled. FIG. 6B) Quantification of CD11b positive cells (immune cells) within and around gel within a healed dermal wound bed at Day 21 (ex. FIG. 6A). FIG. 6C) Comparing cell recruitment into subcutaneously-injected gels as a function of adaptive immune competence (Balb/c) versus adaptive immune incompetence (Rag2gc−/−). FIG. 6D) Fraction of immune cell to total cell recruitment within a subcutaneously injected gels as a function of adaptive immune competence (Balb/c) versus adaptive immune incompetence (Rag2gc−/−). FIGS. 6E-I) mRNA production of key markers of inflammation within an in vitro macrophage assay upon exposure to DI water, Lipid Polysaccharide (LPS) 500 ug/mL, D-MMP crosslinker 500 ug/mL, and LPS+D-MMP.

Gly Cys Arg Asp Gly Pro d-Gln Gly d-Ile d-Trp Gly Gln Asp Arg Cys Gly (GCRDGP[dQ]G[dI][dW]GQDRCG; cysteine pairing not given here) [D-MMP]
effect on macrophages (mRNA of key markers of inflammation) relative to the positive control (LPS) (D-MMP crosslinker 500 ug/mL alone): no direct effect | effect on macrophages (mRNA of key markers of inflammation) when combined with the positive control (LPS) (LPS+D-MMP, each 500 ug/mL): some additive affects
